Laboratory results taken from the NIST ThermoML archive (doi:10.1021/je0502344).

Legend:
[1] = 101.33 kPa, Liquid
[2] = xn = mol fraction of the nth substance listed; details: 101.33 kPa, Liquid

CCCCCCCCCC=O [decanal]
[1]
Details	mass density [kg/m3]	viscosity [mPa·s]
298.15 K	801.24	1.56
308.15 K	789.05	1.412
318.15 K	776.18	1.281

CCCCCCCCCC=O [decanal] + CCO
[2]
Details	mass density, 298.15 K [kg/m3]	mass density, 308.15 K [kg/m3]	mass density, 318.15 K [kg/m3]	viscosity, 298.15 K [mPa·s]	viscosity, 308.15 K [mPa·s]	viscosity, 318.15 K [mPa·s]
x1 = 0.1011	785.98	778.7	764.59	1.128	0.939	0.808
x1 = 0.2102	787.14	779.48	765.47	1.174	0.987	0.854
x1 = 0.3013	788.25	780.24	766.32	1.213	1.028	0.895
x1 = 0.412	789.78	781.28	767.48	1.262	1.081	0.947
x1 = 0.5105	791.31	782.32	768.64	1.308	1.131	0.997
x1 = 0.5836	792.55	783.15	769.58	1.343	1.169	1.035
x1 = 0.6889	794.48	784.47	771.05	1.395	1.226	1.092
x1 = 0.8008	796.73	785.99	772.76	1.452	1.29	1.157
x1 = 0.9145	799.23	787.68	774.65	1.513	1.358	1.226
x1 = 1	801.24	789.05	776.18	1.56	1.412	1.281

CCO [ethanol]
[1]
Details	mass density [kg/m3]	viscosity [mPa·s]
298.15 K	785.08	1.088
308.15 K	778.09	0.897
318.15 K	763.91	0.767

CCO [ethanol] + CCCCCC=O
[2], x2 = 0
Details	mass density [kg/m3]	viscosity [mPa·s]
298.15 K	785.08	1.088
308.15 K	778.09	0.897
318.15 K	763.91	0.767

CCO [ethanol] + CCCCCCCC=O
[2], x2 = 0
Details	mass density [kg/m3]	viscosity [mPa·s]
298.15 K	785.08	1.088
308.15 K	778.09	0.897
318.15 K	763.91	0.767

CCO [ethanol] + CCCCCCCCC=O
[2], x2 = 0
Details	mass density [kg/m3]	viscosity [mPa·s]
298.15 K	785.08	1.088
308.15 K	778.09	0.897
318.15 K	763.91	0.767

CCO [ethanol] + CCCCCCCCCC=O
[2], x2 = 0
Details	mass density [kg/m3]	viscosity [mPa·s]
298.15 K	785.08	1.088
308.15 K	778.09	0.897
318.15 K	763.91	0.767

CCCCCC=O [hexanal]
[1]
Details	mass density [kg/m3]	viscosity [mPa·s]
298.15 K	833.12	0.805
308.15 K	818.94	0.716
318.15 K	804.31	0.639

CCCCCC=O [hexanal] + CCO
[2]
Details	mass density, 298.15 K [kg/m3]	mass density, 308.15 K [kg/m3]	mass density, 318.15 K [kg/m3]	viscosity, 298.15 K [mPa·s]	viscosity, 308.15 K [mPa·s]	viscosity, 318.15 K [mPa·s]
x1 = 0.1094	788	780.57	766.36	1.053	0.875	0.752
x1 = 0.2049	791.01	783.13	768.9	1.023	0.857	0.739
x1 = 0.3226	795.33	786.81	772.53	0.987	0.834	0.723
x1 = 0.4037	798.69	789.67	775.36	0.963	0.819	0.712
x1 = 0.5027	803.22	793.52	779.17	0.935	0.801	0.7
x1 = 0.6207	809.24	798.64	784.23	0.902	0.78	0.685
x1 = 0.7108	814.29	802.93	788.47	0.878	0.764	0.674
x1 = 0.81	820.3	808.04	793.53	0.852	0.747	0.662
x1 = 0.9226	827.69	814.32	799.74	0.824	0.729	0.648
x1 = 1	833.12	818.94	804.31	0.805	0.716	0.639

CCCCCCCCC=O [nonanal]
[1]
Details	mass density [kg/m3]	viscosity [mPa·s]
298.15 K	831.04	1.392
308.15 K	818.01	1.251
318.15 K	804.72	1.127

CCCCCCCCC=O [nonanal] + CCO
[2]
Details	mass density, 298.15 K [kg/m3]	mass density, 308.15 K [kg/m3]	mass density, 318.15 K [kg/m3]	viscosity, 298.15 K [mPa·s]	viscosity, 308.15 K [mPa·s]	viscosity, 318.15 K [mPa·s]
x1 = 0.1034	787.7	780.37	766.24	1.116	0.928	0.798
x1 = 0.2039	790.72	782.99	768.92	1.144	0.96	0.83
x1 = 0.293	793.79	785.65	771.64	1.169	0.989	0.859
x1 = 0.3939	797.7	789.05	775.11	1.199	1.023	0.893
x1 = 0.5045	802.52	793.24	779.4	1.232	1.061	0.931
x1 = 0.5943	806.85	797	783.24	1.26	1.093	0.964
x1 = 0.7116	813.07	802.4	788.76	1.297	1.137	1.009
x1 = 0.7855	817.31	806.08	792.53	1.32	1.165	1.038
x1 = 0.898	824.25	812.11	798.69	1.357	1.209	1.084
x1 = 1	831.04	818.01	804.72	1.392	1.251	1.127

CCCCCCCC=O [octanal]
[1]
Details	mass density [kg/m3]	viscosity [mPa·s]
298.15 K	821.07	1.2
308.15 K	807.34	1.074
318.15 K	793.85	0.965

CCCCCCCC=O [octanal] + CCO
[2]
Details	mass density, 298.15 K [kg/m3]	mass density, 308.15 K [kg/m3]	mass density, 318.15 K [kg/m3]	viscosity, 298.15 K [mPa·s]	viscosity, 308.15 K [mPa·s]	viscosity, 318.15 K [mPa·s]
x1 = 0.1077	787.23	779.83	765.7	1.1	0.915	0.786
x1 = 0.2019	789.45	781.64	767.54	1.11	0.93	0.803
x1 = 0.3178	792.62	784.21	770.18	1.122	0.95	0.825
x1 = 0.3977	795.08	786.22	772.23	1.131	0.964	0.84
x1 = 0.4952	798.4	788.92	774.99	1.142	0.981	0.859
x1 = 0.6115	802.81	792.5	778.66	1.155	1.001	0.883
x1 = 0.7003	806.51	795.5	781.74	1.165	1.018	0.901
x1 = 0.798	810.9	799.07	785.39	1.176	1.036	0.921
x1 = 0.9089	816.3	803.46	789.88	1.189	1.057	0.945
x1 = 1	821.07	807.34	793.85	1.2	1.074	0.965
